This note sets out measurements from ChEMBL document CHEMBL4402531, “Recent advances in α,β-unsaturated carbonyl compounds as mitochondrial toxins” (Eur J Med Chem, 2019).

For assay [1], the system named is PC-3. The experiment in a line: Cytotoxicity against human PC3 cells assessed as reduction in cell viability. It is filed as functional, cell-based.
A further assay relates to HL-60. Description: Cytotoxicity against human HL60 cells assessed as reduction in cell viability. Format: functional, cell-based.
In assay [2] the test system is K562. The experiment in a line: Cell cycle arrest in human K562 cells assessed as accumulation at G0 phase. Format: functional, cell-based.
In assay [3] the test system is K562. Description: Cell cycle arrest in human K562 cells assessed as accumulation at G1 phase. It is filed as functional, cell-based.
Assay [4] has as its system K562. Description: Induction of apoptosis in human K562 cells. Format: functional, cell-based.
In another assay the test system is HCT-116. Description: Cytotoxicity against human HCT116 cells assessed as reduction in cell viability after 72 hrs by MTT assay. Format: functional, cell-based. The note with it: HCT-116, 72 h.
Another assay has as its system CNE. Description: Cytotoxicity against human CNE1 cells assessed as reduction in cell viability after 48 hrs. Format: functional, cell-based.
For another assay, the system named is CNE-2. Description: Cytotoxicity against human CNE2 cells assessed as reduction in cell viability after 48 hrs. The note with it: CNE-2, 48 h. Format: functional, cell-based.
The test system of the next assay is MGC-803. The experiment in a line: Cytotoxicity against human MGC803 cells assessed as reduction in cell viability after 24 hrs by MTT assay. Format: functional, cell-based. As to conditions: MGC-803, 24 h. (Tetrazolium dyes change colour on reduction, which living cells bring about.)
Another assay relates to HGC-27. The experiment in a line: Cytotoxicity against human HGC27 cells assessed as reduction in cell viability after 24 hrs by MTT assay. Format: functional, cell-based. As to conditions: HGC-27, 24 h.
For another assay, the system named is SGC-7901. Description: Cytotoxicity against human SGC7901 cells assessed as reduction in cell viability after 24 hrs by MTT assay. Format: functional, cell-based. As to conditions: SGC-7901, 24 h.
Assay [5] addresses RAF proto-oncogene serine/threonine-protein kinase (Homo sapiens) (UniProt P04049). Description: Inhibition of c-RAF (unknown origin) phosphorylation relative to control. As to conditions: concentration not given here.
Assay [6] concerns the target Dual specificity mitogen-activated protein kinase kinase; MEK1/2 (Homo sapiens) (UniProt P36507+Q02750). Description: Inhibition of MEK (unknown origin) phosphorylation relative to control. Format: protein assay. As to conditions: concentration not given here.
The species named for another assay is Homo sapiens. Description: Inhibition of ERK (unknown origin) phosphorylation relative to control. As to conditions: concentration not given here.
The subject of another assay is MG-63. Description: Cytotoxicity against human MG63 cells assessed as reduction in cell viability after 48 hrs. As to conditions: MG-63, 48 h. Format: functional, cell-based.
For another assay, the system named is U2OS. Description: Cytotoxicity against human U2OS cells assessed as reduction in cell viability after 48 hrs. Format: functional, cell-based.
Assay [7] deals with MCF7. The experiment in a line: Cytotoxicity against human MCF7 cells assessed as reduction in cell viability. It is filed as functional, cell-based.
For assay [8], the system named is HeLa. The experiment in a line: Cytotoxicity against human HeLa cells assessed as reduction in cell viability. It is filed as functional, cell-based.
The next assay has as its system Ca-Ski. Description: Cytotoxicity against human CaSki cells assessed as reduction in cell viability after 72 hrs. It is filed as functional, cell-based.
Assay [9] has as its system SiHa. Description: Cytotoxicity against human SiHa cells assessed as reduction in cell viability after 72 hrs. It is filed as functional, cell-based.
Assay [10] has as its system HeLa. Description: Cytotoxicity against human HeLa cells assessed as reduction in cell viability after 72 hrs. Format: functional, cell-based.
The subject of a further assay is C-33-A. Description: Cytotoxicity against human C33A cells assessed as reduction in cell viability after 72 hrs. Format: functional, cell-based.
The next assay has as its system PC-12. The experiment in a line: Cytotoxicity against rat PC12 cells assessed as reduction in cell viability after 48 hrs by MTT assay. Format: functional, cell-based. As to conditions: PC-12, 48 h.
The next assay has as its system L02. Description: Cytotoxicity against human LO2 cells assessed as reduction in cell viability after 48 hrs by MTT assay. Format: functional, cell-based. The note with it: L02, 48 h.
For assay [11], the system named is SiHa. The experiment in a line: Cytotoxicity against human SiHa cells assessed as reduction in cell viability after 72 hrs by MTT assay. It is filed as functional, cell-based.
In assay [12] the test system is HeLa. Description: Cytotoxicity against human HeLa cells assessed as reduction in cell viability after 72 hrs by MTT assay. It is filed as functional, cell-based.
Assay [13] has as its system SiHa. The experiment in a line: Cytotoxicity against human SiHa cells assessed as reduction in cell viability after 24 hrs by MTT assay. It is filed as functional, cell-based.
For assay [14], the system named is HeLa. The experiment in a line: Cytotoxicity against human HeLa cells assessed as reduction in cell viability after 24 hrs by MTT assay. Format: functional, cell-based.
The subject of another assay is HK-2. The experiment in a line: Cytotoxicity against human HK2 cells assessed as reduction in cell viability after 24 to 48 hrs by MTT assay. Format: cell-based.
The next assay relates to WI-38. Description: Cytotoxicity against human WI38 cells assessed as reduction in cell viability after 24 to 48 hrs by MTT assay. It is filed as cell-based.
Assay [15] concerns MCF7. Description: Cytotoxicity against human MCF7 cells assessed as reduction in cell viability after 24 to 48 hrs by MTS assay. Format: functional, cell-based.
The next assay deals with MDA-MB-231. The experiment in a line: Cytotoxicity against human MDA-MB-231 cells assessed as reduction in cell viability after 24 to 48 hrs by MTS assay. Format: functional, cell-based.
Another assay deals with MSTO-211H. The experiment in a line: Cytotoxicity against human MSTO-211H cells assessed as reduction in cell viability after 24 to 48 hrs by MTS assay. It is filed as functional, cell-based.
A further assay relates to NCI-H28. Description: Cytotoxicity against human NCI-H28 cells assessed as reduction in cell viability after 24 to 48 hrs by MTS assay. It is filed as functional, cell-based.
The subject of a further assay is HepG2. The experiment in a line: Growth inhibition of human HepG2 cells. Format: functional, cell-based.
The test system of another assay is LNCaP. Description: Cytotoxicity against human LNCAP cells assessed as reduction in cell viability relative to control. It is filed as functional.
For a further assay, the system named is LNCaP C4-2. The experiment in a line: Cytotoxicity against human C4-2 cells assessed as reduction in cell viability relative to control. Format: functional.
The test system of assay [16] is PC-3. The experiment in a line: Cytotoxicity against human PC3 cells assessed as reduction in cell viability relative to control. Format: functional.
A further assay relates to DU-145. Description: Cytotoxicity against human DU145 cells assessed as reduction in cell viability relative to control. Format: functional.
For assay [17], the system named is MCF7. The experiment in a line: Cytotoxicity against human MCF7 cells assessed as reduction in cell viability at 0.01 uM after 48 hrs by fluorescence assay relative to control. Format: functional.
Assay [18] has as its system MCF7. Description: Cytotoxicity against human MCF7 cells assessed as reduction in cell viability at 5 uM after 48 hrs by fluorescence assay relative to control. Format: functional.

RAF proto-oncogene serine/threonine-protein kinase (Homo sapiens), sequence (P04049 whole entry): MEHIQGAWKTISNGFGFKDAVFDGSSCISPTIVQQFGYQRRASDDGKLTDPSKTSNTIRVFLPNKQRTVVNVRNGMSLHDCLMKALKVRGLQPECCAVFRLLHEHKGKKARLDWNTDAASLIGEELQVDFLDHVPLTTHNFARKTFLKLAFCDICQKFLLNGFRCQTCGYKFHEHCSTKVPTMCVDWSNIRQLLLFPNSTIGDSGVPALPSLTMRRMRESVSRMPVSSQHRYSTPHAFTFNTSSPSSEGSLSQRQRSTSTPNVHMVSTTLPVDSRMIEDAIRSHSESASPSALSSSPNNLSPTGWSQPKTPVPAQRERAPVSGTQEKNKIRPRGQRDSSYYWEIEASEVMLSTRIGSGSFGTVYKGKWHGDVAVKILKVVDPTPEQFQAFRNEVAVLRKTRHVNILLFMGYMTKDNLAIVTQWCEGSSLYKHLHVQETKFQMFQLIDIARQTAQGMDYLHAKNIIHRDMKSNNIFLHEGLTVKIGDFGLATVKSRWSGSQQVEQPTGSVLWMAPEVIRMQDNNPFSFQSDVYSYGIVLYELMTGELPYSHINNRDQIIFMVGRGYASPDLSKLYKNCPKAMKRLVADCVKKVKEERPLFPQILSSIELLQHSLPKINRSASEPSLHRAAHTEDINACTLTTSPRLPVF
Dual specificity mitogen-activated protein kinase kinase; MEK1/2 (Homo sapiens), sequence (P36507 whole entry, looked up): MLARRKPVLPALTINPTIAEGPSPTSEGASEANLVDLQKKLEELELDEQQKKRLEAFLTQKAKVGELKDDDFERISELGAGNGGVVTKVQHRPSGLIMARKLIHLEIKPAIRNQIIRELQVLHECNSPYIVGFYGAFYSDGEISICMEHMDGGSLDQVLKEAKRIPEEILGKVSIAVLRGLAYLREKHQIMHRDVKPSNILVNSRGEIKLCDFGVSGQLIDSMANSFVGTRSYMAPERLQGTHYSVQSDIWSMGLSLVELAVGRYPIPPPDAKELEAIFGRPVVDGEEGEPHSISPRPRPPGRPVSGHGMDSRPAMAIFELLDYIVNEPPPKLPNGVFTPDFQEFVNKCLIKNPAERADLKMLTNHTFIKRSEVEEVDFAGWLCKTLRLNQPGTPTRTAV
Dual specificity mitogen-activated protein kinase kinase; MEK1/2 (Homo sapiens), sequence (Q02750 whole entry, looked up): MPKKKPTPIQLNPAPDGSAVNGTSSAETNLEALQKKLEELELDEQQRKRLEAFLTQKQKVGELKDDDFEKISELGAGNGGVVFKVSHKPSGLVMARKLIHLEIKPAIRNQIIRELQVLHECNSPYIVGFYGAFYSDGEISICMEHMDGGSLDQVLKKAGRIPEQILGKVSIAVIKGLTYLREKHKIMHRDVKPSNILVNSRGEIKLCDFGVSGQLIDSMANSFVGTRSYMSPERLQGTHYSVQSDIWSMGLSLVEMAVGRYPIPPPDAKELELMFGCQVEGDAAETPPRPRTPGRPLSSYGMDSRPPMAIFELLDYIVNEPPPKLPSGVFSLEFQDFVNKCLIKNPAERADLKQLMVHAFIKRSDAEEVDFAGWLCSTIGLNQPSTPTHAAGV

As a reminder, the IC50 is the concentration that inhibits the measured activity by half. For `COc1ccc(C(=O)/C=C/c2ccccc2)c(O)c1`, the IC50 in the assay on PC-3 [1] fell in the range of 8.08 to 13.8 µM.

On to `CCn1cc(C(=O)O)c(=O)c2c3c(ccc21)NC(=O)/C3=C1/C(=O)Nc2ccc(Cl)cc21`, for which, in the assay on HL-60, the IC50 is 4.27 µM.

As for `COc1cc(/C=C/C(=O)C(=Cc2ccncc2)C(=O)/C=C/c2ccc(O)c(OC)c2)ccc1O`, the half-maximal inhibitory concentration (IC50) in the assay with K562 [2] is 0.6 µM; in the assay on K562 [3], 0.4 to 3.2 µM; with K562 [4], 0.4 to 3.2 µM.

Take `CC(=O)Oc1ccc(C(=O)/C=C/c2ccccc2)c(O)c1`: in the assay with PC-3 [1], the IC50 was 8.08 to 13.8 µM.

Regarding `COc1cccc(OC)c1C(=O)/C=C/c1c2ccccc2nc2ccccc12`, the IC50 in the assay on HCT-116 worked out at 4.2 µM.

With `CCOc1ccc(C(=O)/C=C/c2ccccc2)c(O)c1`, the half-maximal inhibitory concentration (IC50) in the assay on PC-3 [1] lay in the range of 8.08 to 13.8 µM.

Regarding `C=C1C(=O)[C@]23[C@H](O)[C@@H]1CC[C@H]2[C@]12CCCC(C)(C)[C@H]1[C@H](O)[C@@]3(O)OC2`, the IC50 is 1.26 µM in the assay on CNE and 1.52 µM in the assay on CNE-2.

With `CCCOc1ccc(C(=O)/C=C/c2ccccc2)c(O)c1`, in the assay with PC-3 [1], the IC50 was 8.08 to 13.8 µM.

As for `COc1ccc(Br)cc1C(=O)/C=C/c1ccc(S(C)(=O)=O)cc1`, the half-maximal inhibitory concentration (IC50) in the assay with MGC-803, in the assay with HGC-27 and with SGC-7901 was 3.57 to 5.61 µM throughout.

For orientation: inhibition means the percentage by which the read-out fell short of the control. For `O=C(/C=C/c1ccc(O)cc1)/C(C(=O)Nc1ccccc1)=C(O)/C=C/c1ccc(O)cc1`, the values for the inhibition (in assay [5]; in assay [6]; in the assay filed under Homo sapiens) were 93%, 91% and 87%, respectively.

For the molecule `O=C(/C=C/c1ccccc1)c1ccc(O)cc1O` [2',4'-DIHYDROXYCHALCONE], the half-maximal inhibitory concentration (IC50) with PC-3 [1] lay within 8.08 to 13.8 µM.

Regarding `O=C(/C=C(\O)c1ccccc1)c1ccccc1O` [2',beta-DIHYDROXYCHALCONE], the IC50 with MG-63 stood at 23.8 µM; with U2OS, 19.6 µM.

As for `COc1cc(O)c(C(=O)/C=C/c2ccccc2)c2c1C=CC(C)(CCC=C(C)C)O2` (stereo not given) [BOESENBERGIN A], the IC50 in the assay with MCF7 [7] and in the assay on HeLa [8] was 20 µM each time.

With `O=C(/C=C/c1ccc(O)cc1)c1ccc(O)cc1O` [ISOLIQUIRITIGENIN], the IC50 with Ca-Ski was 39.1 µM; in the assay on SiHa [9], 53.8 µM; with HeLa [10] it was 58.1 µM; in the assay with C-33-A, 32.8 µM; in the assay with PC-12, 17.8 µM; in the assay on L02, greater than 1000 µM. The IC50 stood at 53.8 µM with SiHa [11] and 58.1 µM with HeLa [12].

For the molecule `C=CC(C)(C)c1cc(/C=C/C(=O)c2ccc(O)cc2)c(OC)cc1O` [LICOAGROCHACONE A], the IC50 with SiHa [13] stood at 42.2 µM; in the assay on HeLa [14] it was 48.5 µM; in the assay on HK-2, 88.7 µM; in the assay on WI-38 it was 90.2 µM; in the assay with MCF7 [15] it was 22 µM; in the assay on MDA-MB-231, 22 µM. The IC50 in the assay with MSTO-211H was 26 µM; in the assay with NCI-H28 it was 30 µM.

Consider `CCCCC/C=C/C(=O)CCc1ccc(O)c(OC)c1` [SHOGAOL], for which the IC50 in the assay with HepG2 was determined as 88 µM.

Consider `COc1cc(O)c(CC=C(C)C)c(O)c1C(=O)/C=C/c1ccc(O)cc1` [XANTHOHUMOL], for which the Activity with LNCaP is 41%; in the assay with LNCaP C4-2, 30%; with PC-3 [16], 42%; in the assay with DU-145, 38%; in the assay on MCF7 [17], 39.6%; with MCF7 [18], -57.3%.
